From PubChem BioAssay (NCI)
Values joined by “and” are separate entries in the source; they are usually repeats but may differ in a detail not shown here. Equal entries are not always repeated.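 How tested: cells in 96-well plates exposed to compound for 48 hours at five concentrations. GI50 = concentration required for 50% inhibition of growth. TGI denotes the concentration required for complete inhibition of growth.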

tested on: SW-620 colon; assay: inhibition of tumour cell growth, NCI panel, 48 h

Structure (SMILES) | TGI | GI50
O=[n+]1c2c(n([O-])c3ccccc31)CCCCCCCCCC2 | > 100 µM | –
Cn1cc(C2=C(c3ccc4ccccc4c3)C(=O)NC2=O)c2ccccc21 | > 25 µM | 8.28 µM
O=C(OCc1ccc2cccc(O)c2n1)N1CCN(C(=O)c2cc3cc(F)ccc3[nH]2)CC1 | 1.91 µM | 0.42 µM
CNC(=S)N(C)C(=S)Nn1c(=O)c(C)nn(C)c1=S | > 100 µM | –
O=C1CCCC/C(=C/c2ccccc2)N1 | > 100 µM | –
O=C1CN=C(C[N+](=O)[O-])c2ccccc21 | > 100 µM | –
CCCCN(CCCC)CC(C(=O)Nc1ccc([N+](=O)[O-])cc1[N+](=O)[O-])/C(C)=N\NC(=S)NN (stereo not drawn) | > 100 µM | –
S=C(N/N=C/c1ccco1)NC12CC3CC(CC(C3)C1)C2 | > 100 µM | –
CS(=O)(=O)N/N=C/CN1C(=O)c2ccccc2C1=O | > 100 µM | –
CC(C)(C)C(=O)OCOP(=O)(OCOC(=O)C(C)(C)C)C1CCCN(O)C1=O (stereo not drawn) | 42.6 µM | 0.493 µM
CC(=O)O.CC(=O)O.CC(=O)O.CC(=O)O.CC(=O)O.CC(=O)O.O.[Ti].[Ti] | > 100 µM | > 100 µM
COC(=O)C1=C(c2ccc3c(c2)OCO3)O[C@H](c2cc(OC)c(OC)c(OC)c2)[C@H]1COC(C)=O | > 100 µM | –
COc1ccc(OC)c(NC(=O)C(=O)NNC(=O)c2sc(NNC(C)=O)nc2C)c1 | 46.6 µM | –
CCCCc1c(OC)cc(O)c2c1C(=O)c1[nH]c(C(=O)O)c(O)c(=O)c1C2=O | > 100 µM | –
O=[N+]([O-])c1nccn1CC(O)c1ccc(F)cc1 (stereo not drawn) | > 100 µM | –
COc1ccc(NC(=O)CCc2cc(-c3ccc(O)c(OC)c3)nc(NC#N)n2)cc1 | > 100 µM | –
COC(=O)c1cc2c3ccccc3n(C(C)=O)c2cn1 | > 100 µM | –
O=C1c2ccccc2C2(Br)C(=O)c3ccccc3C12 (stereo not drawn) | > 100 µM | –
CCCCOC(=O)C1C(c2ccc(Cl)cc2)NC(c2ccc(Cl)cc2)C(C(=O)OCCCC)S1(=O)=O (stereo not drawn) | > 100 µM | –
Cc1cc(Br)cc(C)c1NC(=O)C(=O)C(C(=O)c1ccc2ccccc2c1)C1OC(=O)c2ccccc21 (stereo not drawn) | 28.1 µM | –

Structure (SMILES) | TGI | GI50
CCOC(=O)Oc1c(OC)cc(C(=O)NC2CCc3cc(OC)c(OC)c(OC)c3-c3ccc(SC)c(=O)cc32)cc1OC (stereo not drawn) | > 70 µM | < 0.007 µM
CC(=O)Nc1ccc(C(=O)NN2C(=O)C(Cl)C2c2ccccc2)cc1 (stereo not drawn) | > 100 µM | –
COC(=O)c1cc2c(cc1O)[C@@H](NC(C)=O)CCc1cc(OC)c(OC)c(OC)c1-2 | > 100 µM | 0.0235 µM
CC(C)(C)OC(=O)NCC(=O)OCc1ccccc1 | > 100 µM | –
Cc1ccc(SC(C)/C=C/NNC2=NC(c3ccccc3)C(c3ccccc3)=NN2)cc1 (stereo not drawn) | > 100 µM | –
CC(C)(C)[SiH]12(OC(C(F)(F)F)(C(F)(F)F)c3ccccc31)OC(C(F)(F)F)(C(F)(F)F)c1ccccc12 | 18.1 µM | –
CSc1nc2c(nc(C)c(=O)n2C2OCC(OC(C)=O)C(OC(C)=O)C2OC(C)=O)c(=O)[nH]1 (stereo not drawn) | > 100 µM | –
O=S(O)CCCCSSCC(O)C(O)CSSCCCCS(=O)O (stereo not drawn) | 47.6 µM and 61.8 µM | –
O=C1OC(c2ccccc2)=N/C1=C/C=C/c1ccco1 | > 100 µM | –
Clc1ccc2c(NCCCNc3nccc(Nc4ccc(Br)cc4)n3)ccnc2c1 | 3.3 µM | 1.58 µM
Cc1ccccc1N1C(=O)/C(=C/c2ccc(N(CCC#N)CCC#N)cc2)N=C1c1cc([N+](=O)[O-])ccc1Cl | > 100 µM | –
COc1ccc(C2S/C(=C\c3ccccc3O)C(=O)N2NC(=O)Cc2ccccc2)cc1 (stereo not drawn) | > 100 µM | –
Cc1ccc(S(=O)(=O)NCC2CCCCC2=O)cc1 (stereo not drawn) | > 100 µM | –
CC(C)=C[C@@H]1C[C@H](C)[C@H]2CC[C@H](C)C3=C2[C@](O)(OC3=O)[C@]1(C)O | > 100 µM | > 100 µM
CCC[CH2][Sn]([CH2]CCC)([CH2]CCC)[O]C(=O)CC | 0.301 µM | 0.151 µM
CNC(=S)NC1CCCCC1NC(=S)NC (stereo not drawn) | > 100 µM | –
CC1OC(n2cc(F)c(=O)[nH]c2=O)C=CC1O (stereo not drawn) | > 71.6 µM | –
C=C(C=O)[C@@H]1C2OC(=O)C(=C)[C@@H]2CC(O)[C@@]1(C)CC (stereo partly drawn) | 11.8 µM | –
C=C(CCCCC)CN1CCCC1[C@@](C)(O)CC(=O)OCC (stereo partly drawn) | > 100 µM | –
O=C1c2ccccc2C(=O)C1(Cl)C1(S(=O)(=O)O)c2ccccc2-c2ccccc21 | > 100 µM | –

tested on: KM12 colon; assay: inhibition of tumour cell growth, NCI panel, 48 h

Structure (SMILES) | TGI | GI50
O=[n+]1c2c(n([O-])c3ccccc31)CCCCCCCCCC2 | > 100 µM | –
Cn1cc(C2=C(c3ccc4ccccc4c3)C(=O)NC2=O)c2ccccc21 | > 25 µM | 12.5 µM
O=C(OCc1ccc2cccc(O)c2n1)N1CCN(C(=O)c2cc3cc(F)ccc3[nH]2)CC1 | 3.46 µM | 1.61 µM
CNC(=S)N(C)C(=S)Nn1c(=O)c(C)nn(C)c1=S | > 100 µM | –
O=C1CCCC/C(=C/c2ccccc2)N1 | > 100 µM | –
O=C1CN=C(C[N+](=O)[O-])c2ccccc21 | > 100 µM | –
CCCCN(CCCC)CC(C(=O)Nc1ccc([N+](=O)[O-])cc1[N+](=O)[O-])/C(C)=N\NC(=S)NN (stereo not drawn) | > 100 µM | –
S=C(N/N=C/c1ccco1)NC12CC3CC(CC(C3)C1)C2 | > 100 µM | –
CS(=O)(=O)N/N=C/CN1C(=O)c2ccccc2C1=O | > 100 µM | –
CC(C)(C)C(=O)OCOP(=O)(OCOC(=O)C(C)(C)C)C1CCCN(O)C1=O (stereo not drawn) | 13.3 µM | 0.443 µM
CC(=O)O.CC(=O)O.CC(=O)O.CC(=O)O.CC(=O)O.CC(=O)O.O.[Ti].[Ti] | > 100 µM | > 100 µM
COC(=O)C1=C(c2ccc3c(c2)OCO3)O[C@H](c2cc(OC)c(OC)c(OC)c2)[C@H]1COC(C)=O | 50 µM | –
COc1ccc(OC)c(NC(=O)C(=O)NNC(=O)c2sc(NNC(C)=O)nc2C)c1 | > 100 µM | –
CCCCc1c(OC)cc(O)c2c1C(=O)c1[nH]c(C(=O)O)c(O)c(=O)c1C2=O | > 100 µM | –
O=[N+]([O-])c1nccn1CC(O)c1ccc(F)cc1 (stereo not drawn) | > 100 µM | –
COc1ccc(NC(=O)CCc2cc(-c3ccc(O)c(OC)c3)nc(NC#N)n2)cc1 | > 100 µM | –
COC(=O)c1cc2c3ccccc3n(C(C)=O)c2cn1 | > 100 µM | –
O=C1c2ccccc2C2(Br)C(=O)c3ccccc3C12 (stereo not drawn) | > 100 µM | –
CCCCOC(=O)C1C(c2ccc(Cl)cc2)NC(c2ccc(Cl)cc2)C(C(=O)OCCCC)S1(=O)=O (stereo not drawn) | > 100 µM | –
Cc1cc(Br)cc(C)c1NC(=O)C(=O)C(C(=O)c1ccc2ccccc2c1)C1OC(=O)c2ccccc21 (stereo not drawn) | 34 µM | –

Structure (SMILES) | TGI | GI50
CCOC(=O)Oc1c(OC)cc(C(=O)NC2CCc3cc(OC)c(OC)c(OC)c3-c3ccc(SC)c(=O)cc32)cc1OC (stereo not drawn) | – | < 0.007 µM
COC(=O)c1cc2c(cc1O)[C@@H](NC(C)=O)CCc1cc(OC)c(OC)c(OC)c1-2 | – | < 0.01 µM
CC(C)(C)OC(=O)NCC(=O)OCc1ccccc1 | > 100 µM | –
Cc1ccc(SC(C)/C=C/NNC2=NC(c3ccccc3)C(c3ccccc3)=NN2)cc1 (stereo not drawn) | > 100 µM | –
CC(C)(C)[SiH]12(OC(C(F)(F)F)(C(F)(F)F)c3ccccc31)OC(C(F)(F)F)(C(F)(F)F)c1ccccc12 | 15.3 µM | –
CSc1nc2c(nc(C)c(=O)n2C2OCC(OC(C)=O)C(OC(C)=O)C2OC(C)=O)c(=O)[nH]1 (stereo not drawn) | > 100 µM | –
O=S(O)CCCCSSCC(O)C(O)CSSCCCCS(=O)O (stereo not drawn) | 36.4 µM and > 100 µM | –
O=C1OC(c2ccccc2)=N/C1=C/C=C/c1ccco1 | > 100 µM | –
Clc1ccc2c(NCCCNc3nccc(Nc4ccc(Br)cc4)n3)ccnc2c1 | 3.36 µM | 1.82 µM
Cc1ccccc1N1C(=O)/C(=C/c2ccc(N(CCC#N)CCC#N)cc2)N=C1c1cc([N+](=O)[O-])ccc1Cl | > 100 µM | –
COc1ccc(C2S/C(=C\c3ccccc3O)C(=O)N2NC(=O)Cc2ccccc2)cc1 (stereo not drawn) | > 100 µM | –
Cc1ccc(S(=O)(=O)NCC2CCCCC2=O)cc1 (stereo not drawn) | > 100 µM | –
CC(C)=C[C@@H]1C[C@H](C)[C@H]2CC[C@H](C)C3=C2[C@](O)(OC3=O)[C@]1(C)O | > 100 µM | > 100 µM
CCC[CH2][Sn]([CH2]CCC)([CH2]CCC)[O]C(=O)CC | 0.27 µM | 0.135 µM
CNC(=S)NC1CCCCC1NC(=S)NC (stereo not drawn) | > 100 µM | –
CC1OC(n2cc(F)c(=O)[nH]c2=O)C=CC1O (stereo not drawn) | > 100 µM | –
C=C(C=O)[C@@H]1C2OC(=O)C(=C)[C@@H]2CC(O)[C@@]1(C)CC (stereo partly drawn) | 37.2 µM | –
C=C(CCCCC)CN1CCCC1[C@@](C)(O)CC(=O)OCC (stereo partly drawn) | > 100 µM | –
C=CC1CC12C(=O)C1OC2(C)C2C(=O)c3cc4ccccc4cc3C(=O)C12 (stereo not drawn) | 58.7 µM | 21.8 µM
O=C1c2ccccc2C(=O)C1(Cl)C1(S(=O)(=O)O)c2ccccc2-c2ccccc21 | > 100 µM | –

tested on: A498 renal; assay: inhibition of tumour cell growth, NCI panel, 48 h

Structure (SMILES) | GI50 | TGI
Cn1cc(C2=C(c3ccc4ccccc4c3)C(=O)NC2=O)c2ccccc21 | > 25 µM | > 25 µM
O=C(OCc1ccc2cccc(O)c2n1)N1CCN(C(=O)c2cc3cc(F)ccc3[nH]2)CC1 | 1.71 µM | 3.25 µM
CNC(=S)N(C)C(=S)Nn1c(=O)c(C)nn(C)c1=S | – | > 100 µM
O=C1CCCC/C(=C/c2ccccc2)N1 | – | > 100 µM
